Consider 4 molecules from patent publication EP0155454A1, “Use of pirenzepine, its salts or medicaments containing pirenzepine for the treatment of colon disorders” (Dr. Karl Thomae GmbH, priority 1984, dated 1985).

Where a name gives a salt, the structure may show the parent alone. Read-outs that look alike come from different tables or passages of the source.

Experiment [1] has as its system Dickdarmmotorik. Conditions: in vivo; cited from earlier work.
For the next experiment, the system named is Darmmotilität. The conditions noted are these: cited from earlier work.
In a further experiment the test system is Colon irritabile. The experiment is described as follows: Double-blind cross-over clinical study versus placebo in patients with Colon irritabile. In kind it is in vivo, Patienten. Conditions: for symptomfrei oder gebessert: 2 x 25 mg/Tag, 2 weeks per period, 30 Patienten. The source says:
Bei klinischen Untersuchungen an 30 Patienten mit dem angegebenen Beschwerdebild Colon irritabile, wobei sich trotz umfangreicher diagnostischer Maßnahmen bei keinem der Patienten ein pathologischer Befund ergab, wurde Pirenzepin-dihydrochloridmonohydrat zum Einsatz gebracht. Da es für einen möglichen Therapieerfolg bei der geschilderten Indikation keinen objektivierbaren Parameter gibt, wurde jeder Patient in Doppelblind-cross over-Technik entweder mit Pirenzepin oder mit Placebo behandelt. Die Dosierung betrug 2 x 25 mg/Tag. Der Versuchsplan ermöglichte also bei jedem Patienten einen zweimal 2-wöchigen Beobachtungszeitraum. Die geprüften Parameter waren Obstipation, Diarrhoe, Schafkotstuhl, wechselnde Stühle und Schleimabsonderung. Die Beurteilung der therapeutischen Wirkung erfolgte vor Beginn der Behandlung und nach jedem einzelnen Versuchsabschnitt. Jeder Patient erhielt einen weitgefächerten Score, um seine subjektiven Eindrücke festzuhalten. Diese Angaben wurden ausgewertet, wobei die generalisierten Befunde bezüglich der Einzelsymptomatik in der nachstehenden Tabelle aufgeführt sind: […]

Experiment [2] has as its system Dickdarmmotorik. The experiment is described as follows: Neostigmine-stimulated colon motility in healthy volunteers, acute intravenous pirenzepine. The class given is in vivo, freiwilligen Probanden. From the text:
Pirenzepin löst einen krankhaften Spasmus im Darmtrakt ohne den Darm zu lähmen. Um dieses zu beweisen, bzw. um zu überprüfen, ob Pirenzepin anders als Atropin die gestörten motorischen Verhältnisse zu beeinflussen in der Lage ist und sich damit von Anticholinergika, Atropin oder Atropinderivaten unterscheidet, wurde die Dickdarmmotorik bei freiwilligen Probanden mit Neostigmin stimuliert und im Akutversuch Pirenzepin intravenös in therapeutischen Dosen verabreicht. In einer zweiten Serie wurden die Druck- und Motorikverhältnisse bei Patienten mit Colon irritabile vor und nach einer oralen Therapie mit Pirenzepin geprüft. Die dabei erzielten Ergebnisse lassen sich wie folgt zusammenfassen: Im Vergleich zur basalen Untersuchungsperiode konnte unter Neostigminstimulation an gesunden Testpersonen eine signifikante Zunahme der Druckamplitude um 21 %, der Kontraktionsdauer um 76 % und ein Anstieg des Motilitätsindex um 82 % beobachtet werden.

Where [3] appears, read: intravenös, therapeutic doses, after Neostigmin stimulation.

As for `CN1C2CCC1CC(OC(=O)C(CO)c1ccccc1)C2` (racemic) [Atropin], the “propulsive motorische Kontraktionen” value with Dickdarmmotorik [1] is “zum Erliegen bringt”. The “Verminderung der Darmmotilität” value in the experiment on Darmmotilität (in vivo) is given as “eine Verminderung der Darmmotilität bewirkt”.
As to `CN1CCN(CC(=O)N2c3ccccc3C(=O)Nc3cccnc32)CC1` [Gastrozepin, 5,11-Dihydro-11 [(4-methyl-piperazin-1-yl)acetyl]-6H-pyrido [2,3-b] [1,4] benzodiazpin-6-on-dihydrochloridmonohydrat], the symptomfrei oder gebessert with Colon irritabile (Symptom Diarrhoe) is recorded as 84%; in the experiment on Colon irritabile (Symptom Obstipation), 72%; with Colon irritabile (Symptom Schafkotstuhl), 80%; in the experiment with Colon irritabile (Symptom Schleimabsonderung), 83%; with Colon irritabile (Symptom Wechselnde Stühle) it was 89%.
Regarding `CN(C)C(=O)Oc1cccc([N+](C)(C)C)c1` [Neostigmin], in the experiment on Dickdarmmotorik [2] (in vivo), the “Anstieg des Motilitätsindex” value was determined as 82%, the “Zunahme der Druckamplitude” value came out at 21% and the “Zunahme der Kontraktionsdauer” value is listed as 76%.
Regarding `CN1CCN(CC(=O)N2c3ccccc3C(=O)Nc3cccnc32)CC1` [Pirenzepin, 5,11-Dihydro-11-[(4-methyl-piperazin-1-yl)-acetyl)-6H-pyrido [2,3-b] [1,4] benzodiazepin-6-on], in the experiment with Dickdarmmotorik [2] (setting [3]), the “Abnahme der Druckamplitude” value is given as “bis zum Ausgangsniveau”, the “Abnahme der Kontraktionsdauer” value is listed as “bis zum Ausgangsniveau”, the “Abnahme der propulsiven Kontraktionen” value is recorded as “nicht zu registrieren” and the “Abnahme des Motilitätsindex” value is recorded as “bis zum Ausgangsniveau”. Moreover, the “Neostigmin-induzierte segmentale Kolonkontraktionen” value with Dickdarmmotorik [2] (summary statement) is “vermindert”. Besides, the “Unterschiede zwischen der Placebogruppe und der Verumgruppe” value in the experiment with Colon irritabile (all tested parameters) is given as “signifikante bis hochsignifikante Unterschieden zugunsten von Pirenzepin”. Further, in the experiment with Colon irritabile (overall assessment), the “Wirksamkeit in der Indikation Colon irritabile” value is on record as “sehr gut wirksam”. Also, the “Verminderung der Darmmotilität” value in the experiment on Darmmotilität (therapeutische Höchstdosen) is listed as “nicht sichtbar”.
